Key:
[1] = Genistein particle size by laser diffraction technique (Mastersizer 2000); assay type: physicochemical
[2] = “swing” test (changing temperature test, 5° C./43° C.), microscopical examination; assay type: physicochemical; details: O/W emulsions with genistein of example 7 after dry grinding in a Jet mill only (FIG. 7), 0.3%, 0.5% and 0.1% (1.0% elsewhere in the source); ten sequences 5° C./43° C., 24 hours each
Description: To further illustrate the benefits obtained with nanoparticles of genistein versus conventional crystalline genistein, the cosmetic formulations described above (#3 and #4) were submitted to a very challenging stability test: The formulations were stored at a temperature varying from 5° C. to 43° C. every 24 hours during 3 weeks. […] (cycles of 24 hours at each temperature).
To force the crystallization in a disperse system, a test was used in which the temperature is changed over a self-defined timeframe and in self-defined sequences. The test is called “swing” test (changing temperature test). The purpose of this test is to dissolve small particles at the higher temperature and to force re-crystallization at lower temperature. […] The following formulations were used for the “swing” test: […]
To force this crystallization the “swing” test was used and as minimum and maximum temperatures 5° C. and 43° C. were chosen. Each temperature was held over a period of 24 hours. The duration of this test was at first set to 20 days, which means that the samples run through a cooling/heating sequence (=1 sequence) 10 times.
FIGS. 5 to 7 show the results of the “swing” test. […] The following genistein samples and concentrations were employed and the emulsions were measured immediately after preparation and after subjecting the samples to ten sequences of the “swing” test: […]

[3] = Example 1, after homogenization (42 passes) and spray-drying, re-dispersed in water
[4] = Example 1, after homogenization (42 passes, 1500 bar) with starch sodium octenyl succinate, aqueous suspension
[5] = Example 1, genistein powder before homogenization
[6] = Example 2, after homogenization (40 passes, 1500 bar) in water, no carrier
[7] = Example 2, after homogenization (42 passes) and spray-drying, re-dispersed in water
[8] = Example 2, after homogenization (42 passes), starch sodium octenyl succinate added after 40th pass
[9] = Example 2, genistein powder before homogenization
[10] = Example 3, after homogenization (40 passes, 1500 bar) in water, no carrier
[11] = Example 3, after homogenization (42 passes) and spray-drying, re-dispersed in water
[12] = Example 3, after homogenization (42 passes), starch sodium octenyl succinate added after 40th pass
[13] = Example 3, genistein powder before homogenization
[14] = Example 4, after homogenization (20 passes, 700 bar) in water, no carrier
[15] = Example 4, genistein powder before homogenization
[16] = Example 5, Table XI, headed after homogenization (42 passes) and spray-drying, maltodextrin added after 40th pass, suspension before drying
[17] = Example 5, Table XII, after homogenization (42 passes) and spray-drying, maltodextrin carrier, re-dispersed in water
[18] = Example 5, after homogenization (20 passes) as headed, text: 40 times, 1500 bar, in water, no carrier
[19] = Example 5, genistein powder before homogenization
[20] = Example 6, after homogenization (11 passages) in agitated bead mill with starch sodium octenyl succinate
[21] = Example 6, genistein powder before homogenization
[22] = Example 7, Table XIV, before milling and homogenization
[23] = Example 7, Table XV, before milling and homogenization
[24] = Example 7, after milling (Jet mill) and homogenization (12 times, 700 bar) with starch sodium octenyl succinate
[25] = Example 7, after milling, homogenization and spray drying

O=c1c(-c2ccc(O)cc2)coc2cc(O)cc(O)c12 [Genistein, 4′,5,7-trihydroxyisoflavone]
Average particle size D[3, 2] [1, 3]: 0.14 microns | Average particle size D[4, 3] [1, 3]: 0.83 microns | D (v, 0.1) [1, 3]: 0.07 microns | D (v, 0.5) [1, 3]: 0.16 microns | D (v, 0.9) [1, 3]: 2.86 microns | Average particle size D[3, 2] [1, 4]: 0.15 microns | Average particle size D[4, 3] [1, 4]: 0.97 microns | D (v, 0.1) [1, 4]: 0.07 microns | D (v, 0.5) [1, 4]: 0.17 microns | D (v, 0.9) [1, 4]: 3.65 microns | Average particle size D[3, 2] [1, 5]: 23.1 microns | Average particle size D[4, 3] [1, 5]: 48.5 microns | D (v, 0.1) [1, 5]: 17.1 microns | D (v, 0.5) [1, 5]: 41.9 microns | D (v, 0.9) [1, 5]: 91.0 microns | Average particle size D[3, 2] [1, 6]: 0.14 microns | Average particle size D[4, 3] [1, 6]: 0.76 microns | D (v, 0.1) [1, 6]: 0.07 microns | D (v, 0.5) [1, 6]: 0.16 microns | D (v, 0.9) [1, 6]: 2.42 microns | Average particle size D[3, 2] [1, 7]: 0.14 microns | Average particle size D[4, 3] [1, 7]: 0.55 microns | D (v, 0.1) [1, 7]: 0.07 microns | D (v, 0.5) [1, 7]: 0.15 microns | D (v, 0.9) [1, 7]: 1.14 microns | Average particle size D[3, 2] [1, 8]: 0.14 microns | Average particle size D[4, 3] [1, 8]: 0.41 microns | D (v, 0.1) [1, 8]: 0.07 microns | D (v, 0.5) [1, 8]: 0.16 microns | D (v, 0.9) [1, 8]: 0.93 microns | Average particle size D[3, 2] [1, 9]: 23.1 microns | Average particle size D[4, 3] [1, 9]: 48.5 microns | D (v, 0.1) [1, 9]: 17.1 microns | D (v, 0.5) [1, 9]: 41.9 microns | D (v, 0.9) [1, 9]: 91.0 microns | Average particle size D[3, 2] [1, 10]: 0.14 microns | Average particle size D[4, 3] [1, 10]: 0.76 microns | D (v, 0.1) [1, 10]: 0.07 microns | D (v, 0.5) [1, 10]: 0.16 microns | D (v, 0.9) [1, 10]: 2.00 microns | Average particle size D[4, 3] [1, 11]: 0.43 microns | D (v, 0.1) [1, 11]: 0.07 microns | D (v, 0.5) [1, 11]: 0.16 microns | D (v, 0.9) [1, 11]: 0.97 microns | Average particle size D[3, 2] [1, 12]: 0.14 microns | Average particle size D[4, 3] [1, 12]: 0.40 microns | D (v, 0.1) [1, 12]: 0.07 microns | D (v, 0.5) [1, 12]: 0.16 microns | D (v, 0.9) [1, 12]: 0.91 microns | Average particle size D[3, 2] [1, 13]: 23.1 microns | Average particle size D[4, 3] [1, 13]: 48.5 microns | D (v, 0.1) [1, 13]: 17.1 microns | D (v, 0.5) [1, 13]: 41.9 microns | D (v, 0.9) [1, 13]: 91.0 microns | Average particle size D[3, 2] [1, 14]: 0.13 microns | Average particle size D[4, 3] [1, 14]: 0.83 microns | D (v, 0.1) [1, 14]: 0.07 microns | D (v, 0.5) [1, 14]: 0.15 microns | D (v, 0.9) [1, 14]: 2.62 microns | Average particle size D[3, 2] [1, 15]: 23.1 microns | Average particle size D[4, 3] [1, 15]: 48.5 microns | D (v, 0.1) [1, 15]: 17.1 microns | D (v, 0.5) [1, 15]: 41.9 microns | D (v, 0.9) [1, 15]: 91.0 microns | Average particle size D[3, 2] [1, 16]: 0.14 microns | Average particle size D[4, 3] [1, 16]: 0.41 microns | D (v, 0.1) [1, 16]: 0.07 microns | D (v, 0.5) [1, 16]: 0.16 microns | D (v, 0.9) [1, 16]: 0.93 microns | Average particle size D[3, 2] [1, 17]: 0.13 microns | Average particle size D[4, 3] [1, 17]: 0.41 microns | D (v, 0.1) [1, 17]: 0.07 microns | D (v, 0.5) [1, 17]: 0.15 microns | D (v, 0.9) [1, 17]: 0.93 microns | Average particle size D[2, 3] [1, 18]: 0.14 microns | Average particle size D[4, 3] [1, 18]: 0.42 microns | D (v, 0.1) [1, 18]: 0.07 microns | D (v, 0.5) [1, 18]: 0.16 microns | D (v, 0.9) [1, 18]: 0.92 microns | Average particle size D[2, 3] [1, 19]: 23.1 microns | Average particle size D[4, 3] [1, 19]: 48.5 microns | D (v, 0.1) [1, 19]: 17.8 microns | D (v, 0.5) [1, 19]: 41.4 microns | D (v, 0.9) [1, 19]: 90.2 microns | Average particle size D[4, 3] [1, 20]: 0.23 microns | D (v, 0.1) [1, 20]: 0.07 microns | D (v, 0.5) [1, 20]: 0.16 microns | D (v, 0.9) [1, 20]: 0.45 microns | Average particle size D[4, 3] [1, 21]: 48.5 microns | D (v, 0.1) [1, 21]: 17.8 microns | D (v, 0.5) [1, 21]: 41.4 microns | D (v, 0.9) [1, 21]: 90.2 microns | Average particle size D[4, 3] [1, 22]: 48.5 microns | D (v, 0.1) [1, 22]: 17.8 microns | D (v, 0.5) [1, 22]: 41.4 microns | D (v, 0.9) [1, 22]: 90.2 microns | Average particle size D[4, 3] [1, 23]: 48.5 microns | D (v, 0.1) [1, 23]: 17.8 microns | D (v, 0.5) [1, 23]: 41.4 microns | D (v, 0.9) [1, 23]: 90.2 microns | Average particle size D[4, 3] [1, 24]: 0.53 microns | D (v, 0.1) [1, 24]: 0.07 microns | D (v, 0.5) [1, 24]: 0.18 microns | D (v, 0.9) [1, 24]: 1.38 microns | Average particle size D[4, 3] [1, 25]: 0.65 microns | D (v, 0.1) [1, 25]: 0.08 microns | D (v, 0.5) [1, 25]: 0.19 microns | D (v, 0.9) [1, 25]: 1.84 microns | Average particle size D[2, 3] ([1]; after homogenization (42 passes) and spray-drying, re-dispersed in water): 0.14 microns | Change of particle size during the “swing” test [2]: significantly changed

— patent US8685456B2, “Topical compositions comprising nanoparticles of an isoflavone” (DSM IP Assets B.V., priority 2005, dated 2014)
